Results: ChEMBL document CHEMBL1201862, “PubChem BioAssay data set” (2004)
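Growth conditions: 96-well plates. Treatment: test compound, 48 hours, 5 concentrations. Analysis: linear interpolation between bracketing concentrations; unreached endpoints set to highest concentration. GI50: concentration for 50% inhibition of growth.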 Calls of active or inactive are those of the source. Rule as the data show it: active = GI50 up to about 1.1 µM and inactive = higher.

Key:
Assay in all cases: NCI tumour cell line growth inhibition, 48 h
EKVX = system: EKVX
HOP-92 = system: HOP-92
LOX IMVI = system: LOX IMVI
MOLT-4 = system: MOLT-4
NCI-H23 = system: NCI-H23
OVCAR-8 = system: OVCAR-8
SF-295 = system: SF-295
SF-539 = system: SF-539
SK-MEL-28 = system: SK-MEL-28
SK-MEL-5 = system: SK-MEL-5
SN12C = system: SN12C
SR = system: SR
CAKI-1 = system: CAKI-1
COLO 205 = system: COLO 205
RPMI-8226 = system: RPMI-8226

Row | Structure (SMILES) | GI50 (EKVX) | GI50 (HOP-92) | GI50 (LOX IMVI) | GI50 (MOLT-4) | GI50 (NCI-H23) | GI50 (OVCAR-8) | GI50 (SF-295) | GI50 (SF-539) | GI50 (SK-MEL-28) | GI50 (SK-MEL-5) | GI50 (SN12C) | GI50 (SR) | GI50 (CAKI-1) | GI50 (COLO 205) | GI50 (RPMI-8226)
1 | CN(C)CCSc1cccc(-c2cc(-c3cccc(SCCN(C)C)c3)nc(SCCN(C)C)n2)c1 | 2.06 µM (inactive) | 0.551 µM (active) | 1.64 µM (inactive) | 1.63 µM (inactive) | 4.49 µM (inactive) | 1.42 µM (inactive) | 2 µM (inactive) | 1.77 µM (inactive) | 1.93 µM (inactive) | 1.55 µM (inactive) | 12.1 µM (inactive) | 1.82 µM (inactive) | – | – | –
2 | CCOc1ccc(/C(C=O)=C(\Cl)c2ccc(OC)c(OC)c2)cc1 | > 100 µM (inactive) | > 100 µM (inactive) | > 100 µM (inactive) | – | > 100 µM (inactive) | > 100 µM (inactive) | 79.6 µM (inactive) | 83.2 µM (inactive) | > 100 µM (inactive) | 77.3 µM (inactive) | > 100 µM (inactive) | – | > 100 µM (inactive) | > 100 µM (inactive) | > 100 µM (inactive)
3 | Cc1nc([N+](=O)[O-])cn1CC(=N)N | > 100 µM (inactive) | – | > 100 µM (inactive) | > 100 µM (inactive) | > 100 µM (inactive) | > 100 µM (inactive) | > 100 µM (inactive) | > 100 µM (inactive) | > 100 µM (inactive) | > 100 µM (inactive) | > 100 µM (inactive) | > 100 µM (inactive) | – | > 100 µM (inactive) | > 100 µM (inactive)
4 | Cc1cc(N(CCC#N)CCC#N)ccc1/N=N/c1ccc(S(N)(=O)=O)cc1 | > 100 µM (inactive) | – | > 100 µM (inactive) | > 100 µM (inactive) | > 100 µM (inactive) | > 100 µM (inactive) | > 100 µM (inactive) | > 100 µM (inactive) | > 100 µM (inactive) | > 100 µM (inactive) | > 100 µM (inactive) | – | 28.4 µM (inactive) | > 100 µM (inactive) | > 100 µM (inactive)
5 | CCCCCCCCCCCCCCCCCC(=O)OCC(CN(C)CCN(C)C)OC(=O)CCCCCCCCCCCCCCCCC (stereo not given) | > 100 µM (inactive) | > 100 µM (inactive) | > 100 µM (inactive) | 27.1 µM (inactive) | > 100 µM (inactive) | 72.6 µM (inactive) | 63.4 µM (inactive) | – | > 100 µM (inactive) | > 100 µM (inactive) | > 100 µM (inactive) | 35.9 µM (inactive) | > 100 µM (inactive) | > 100 µM (inactive) | > 100 µM (inactive)
6 | Cc1ccc(S(=O)(=O)OCOS(=O)(=O)c2ccc(C)cc2)cc1 | > 100 µM (inactive) | – | > 100 µM (inactive) | > 100 µM (inactive) | > 100 µM (inactive) | > 100 µM (inactive) | > 100 µM (inactive) | > 100 µM (inactive) | > 100 µM (inactive) | > 100 µM (inactive) | > 100 µM (inactive) | > 100 µM (inactive) | – | > 100 µM (inactive) | > 100 µM (inactive)
7 | CCOC(=O)C1=C(NC)OC/C1=N\NC(=O)c1ccccc1O | 44.6 µM (inactive) | 26.1 µM (inactive) | 15.2 µM (inactive) | 22.9 µM (inactive) | 6.87 µM (inactive) | 24.2 µM (inactive) | 50.9 µM (inactive) | 13 µM (inactive) | 30.8 µM (inactive) | 35.8 µM (inactive) | 45.9 µM (inactive) | – | 17.1 µM (inactive) | > 100 µM (inactive) | 32.3 µM (inactive)
8 | COc1ccc(OC(=O)CC2Cc3cc(OC)c(OC)c(OC)c3-c3ccc(SC)c(=O)cc32)cc1 (stereo not given) | > 28.7 µM (inactive) | 0.467 µM (active) | 0.172 µM (active) | 0.387 µM (active) | 0.421 µM (active) | 0.27 µM (active) | 0.0794 µM (active) | 0.114 µM (active) | 0.698 µM (active) | 0.378 µM (active) | 0.3 µM (active) | 0.463 µM (active) | – | 0.403 µM (active) | 0.128 µM (active)
9 | CCOC(=O)N1CCc2cc(OC)c(OC)cc2/C1=C/c1ccc(OC)c(OC)c1 | 79.4 µM (inactive) | 30.5 µM (inactive) | 52.2 µM (inactive) | 33.2 µM (inactive) | 36.1 µM (inactive) | > 10 µM (inactive) | 52.2 µM (inactive) | > 100 µM (inactive) | > 100 µM (inactive) | 20.9 µM (inactive) | 35.6 µM (inactive) | 34.1 µM (inactive) | – | 37.8 µM (inactive) | 19.3 µM (inactive)
10 | CSC(SC)=C1Sc2cccc(Cl)c2S1 | 35.4 µM (inactive) | 15.8 µM (inactive) | 42.6 µM (inactive) | 31.8 µM (inactive) | 55.2 µM (inactive) | 92.5 µM (inactive) | 56.5 µM (inactive) | 74.6 µM (inactive) | > 100 µM (inactive) | 33.3 µM (inactive) | > 100 µM (inactive) | – | 43 µM (inactive) | 20.4 µM (inactive) | 36.2 µM (inactive)
11 | CCOc1ccccc1C=C1c2ccccc2C(=O)c2ccccc21 | 3.23 µM (inactive) | 5.48 µM (inactive) | 8.69 µM (inactive) | 4.3 µM (inactive) | 4.06 µM (inactive) | 5.27 µM (inactive) | 3.82 µM (inactive) | 2.16 µM (inactive) | 12 µM (inactive) | 2.75 µM (inactive) | 6.56 µM (inactive) | – | 2.11 µM (inactive) | 3.78 µM (inactive) | 3.81 µM (inactive)
12 | NC(=O)/C(=N\NC(=O)c1cc2ccccc2cc1O)C1C(=O)N(c2ccccc2)N=C1N (stereo not given) | 32.2 µM (inactive) | 22.3 µM (inactive) | > 100 µM (inactive) | 21.4 µM (inactive) | 20.3 µM (inactive) | 26.3 µM (inactive) | 33 µM (inactive) | – | 73.6 µM (inactive) | 18.4 µM (inactive) | 40.5 µM (inactive) | – | – | 28.8 µM (inactive) | 13.8 µM (inactive)
13 | CN(C)C=[N+]=[N-] | > 100 µM (inactive) | > 100 µM (inactive) | – | > 100 µM (inactive) | > 100 µM (inactive) | > 100 µM (inactive) | > 100 µM (inactive) | > 100 µM (inactive) | – | > 100 µM (inactive) | > 100 µM (inactive) | > 100 µM (inactive) | 43 µM (inactive) | > 100 µM (inactive) | > 100 µM (inactive)
14 | CCOC(=O)Cc1ccc2c(c1O)C(=O)c1c(ccc(CC(=O)OCC)c1O)C2=O | > 100 µM (inactive) | > 100 µM (inactive) | 27.9 µM (inactive) | 87.9 µM (inactive) | > 100 µM (inactive) | > 100 µM (inactive) | > 100 µM (inactive) | > 100 µM (inactive) | 96.2 µM (inactive) | 20.4 µM (inactive) | > 100 µM (inactive) | > 100 µM (inactive) | – | > 100 µM (inactive) | > 100 µM (inactive)
15 | S=P1(c2ccccc2)Nc2ccc(Cl)cc2N1 (stereo not given) | > 100 µM (inactive) | 20.2 µM (inactive) | > 100 µM (inactive) | 20 µM (inactive) | > 100 µM (inactive) | – | > 100 µM (inactive) | > 100 µM (inactive) | > 100 µM (inactive) | > 100 µM (inactive) | – | – | 32.6 µM (inactive) | 19.9 µM (inactive) | 4.68 µM (inactive)
16 | COc1ccccc1NC(=O)CC(=O)N1N=C(C)C(/N=N/c2ccc(S(N)(=O)=O)cc2)C1=O (stereo not given) | > 100 µM (inactive) | > 100 µM (inactive) | > 100 µM (inactive) | > 100 µM (inactive) | > 100 µM (inactive) | > 100 µM (inactive) | > 100 µM (inactive) | > 100 µM (inactive) | > 100 µM (inactive) | > 100 µM (inactive) | > 100 µM (inactive) | > 100 µM (inactive) | > 100 µM (inactive) | > 100 µM (inactive) | > 100 µM (inactive)
17 | O=C(Cl)c1cc([N+](=O)[O-])cc([N+](=O)[O-])c1 | > 100 µM (inactive) | > 100 µM (inactive) | > 100 µM (inactive) | > 100 µM (inactive) | > 100 µM (inactive) | – | > 100 µM (inactive) | > 100 µM (inactive) | > 100 µM (inactive) | > 100 µM (inactive) | – | > 100 µM (inactive) | > 100 µM (inactive) | > 100 µM (inactive) | > 100 µM (inactive)
18 | O=C(Nc1cc([N+](=O)[O-])cc([N+](=O)[O-])c1)OC1C2CCC1C1OC1C2 (stereo not given) | > 50 µM (inactive) | > 50 µM (inactive) | – | 34.5 µM (inactive) | > 50 µM (inactive) | > 50 µM (inactive) | > 50 µM (inactive) | > 50 µM (inactive) | > 50 µM (inactive) | 31.3 µM (inactive) | – | – | – | > 50 µM (inactive) | 22.6 µM (inactive)
19 | CC(=O)[O-].[O-]c1c(Cl)cc(Cl)cc1/C=N/Nc1ccccn1.[Zn+2] | 2.18 µM (inactive) | 0.316 µM (active) | 0.798 µM (active) | 0.183 µM (active) | 0.32 µM (active) | 0.237 µM (active) | 1.47 µM (inactive) | 1.26 µM (inactive) | 1.57 µM (inactive) | 0.593 µM (active) | 5.82 µM (inactive) | 0.16 µM (active) | – | 15.2 µM (inactive) | 0.325 µM (active)
20 | CCNC(=O)C(O)C1(O)CCC2[C@@H]3CCC4=CC(=O)C=C[C@]4(C)C3[C@@H](O)C[C@@]21C (stereo not given in full) | > 100 µM (inactive) | – | > 95.1 µM (inactive) | 52.1 µM (inactive) | > 100 µM (inactive) | > 100 µM (inactive) | > 100 µM (inactive) | > 100 µM (inactive) | > 100 µM (inactive) | – | 53.2 µM (inactive) | 63 µM (inactive) | > 100 µM (inactive) | > 100 µM (inactive) | 22.4 µM (inactive)
